Assays:
Assay in all cases: Twenty-four hour biofilm growth (crystal violet)
Format in all cases: cell-based
[1] = test system: S. salivarius
Description: (§1) The increase in biofilm formation of the tested bacteria in response to selected saccharides (D-turanose, D-lactitol, myo-inositol, and N-acetyl-D-mannosamine) was investigated by setting up biofilm growth assays in a nutritionally rich medium (brain heart infusion broth (BHI), Oxoid), over 24 hours. Late exponential growth phase liquid cultures were prepared by transferring the respective bacterium from blood agar plates to BHI and overnight incubation at 37° C. in an anaerobic atmosphere for A. viscosus, V. parvula, P. gingivalis, P. intermedia, T. forsythia, A. naeslundii, and C. sputigena, and in a 5% CO2 environment for S. salivarius, S. sanguinis, S. mitis, A. actinomycetemcomitans, S. mutans, and S. gordonii. Overnight cultures were transferred to BHI and adjusted to a concentration of 1×10^7 CFU/ml by measuring the optical density at 600 nm (OD600) (BioRad SmartSpec 3000). For each strain, 200 μl of the bacterial suspension was added to a 96-well plate containing 20 μl of the respective saccharides. Final concentrations of the saccharides were set to 5, 10, 20 and 25 μmol/ml. […] Additionally, for each bacterium tested, a background control, to correct for background staining, was added. This background control contained the bacterium tested and 0.03 weight % chlorhexidine, as an antiseptic. Plates were incubated as previously described. After 24 hrs the supernatant was removed from the wells of the plates. The wells were washed twice with 1×100 μL PBS (phosphate buffered saline), fixed for 20 minutes with 96% vol. ethanol (96% vol. solution in water) and the biofilm retained at the bottom of the wells was stained with 1 weight % crystal violet (1 weight % solution in water). The bound dye was dissolved with 5% vol. acetic acid (5% vol. solution in water). Quantification of the stained biofilm was performed by measuring the absorbance at 630 nm using a Multiskan Ascent microplate reader (Thermo Scientific).
(§2) The experiment was carried out on three different days (thus providing 3 biological replicas) and each day the experiment was carried out in quadruple (thus providing 4 technical replicas) for each combination of bacterium with saccharide and for each control. For each day and for each combination, the average (mean) of the values obtained (as detailed above) for the four technical replicas was calculated to provide a single value for each combination on each day. The values shown in Tables 7a, 7b, 8a, 8b, below, are the average (mean) of the three single values obtained for each combination of bacterium with saccharide.

[2] = test system: T. forsythia
Description: as §1, §2

[3] = test system: C. sputigena
Description: as §1, §2

[4] = test system: S. gordonii
Description: as §1, §2

[5] = test system: P. intermedia
Description: as §1, §2

[6] = test system: A. naeslundii
Description: as §1, §2

[7] = test system: S. mitis
Description: as §1, §2

[8] = test system: A. viscosus
Description: as §1, §2

[9] = test system: S. sanguinis
Description: as §1, §2

[10] = test system: S. mutans; conditions: S mutans
Description: as §1, §2

[11] = test system: A. actinomycetemcomitans
Description: as §1, §2

[12] = test system: V. parvula
Description: as §1, §2

[13] = test system: P. gingivalis
Description: as §1, §2

OC[C@H]1O[C@@](O)(CO)[C@@H](O[C@H]2O[C@H](CO)[C@@H](O)[C@H](O)[C@H]2O)[C@@H]1O [D-Turanose, α-D-glucopyranosyl-(1→3)-α-D-fructofuranose] was tested, and the “biofilm growth: OD 630 nm at 24 hrs divided by OD of control (control = 1)” value ([1]; 5 μmol/ml) was 0.9812, the “biofilm growth: OD 630 nm at 24 hrs divided by OD of control (control = 1)” value ([1]; 10 μmol/ml) was 0.9793 and the “biofilm growth: OD 630 nm at 24 hrs divided by OD of control (control = 1)” value ([1]; 20 μmol/ml) was 0.8441. For the same molecule, the “biofilm growth: OD 630 nm at 24 hrs divided by OD of control (control = 1)” value ([1]; 25 μmol/ml) was 0.8731, the “biofilm growth: OD 630 nm at 24 hrs divided by OD of control (control = 1)” value ([2]; 5 μmol/ml) was 0.8918 and the “biofilm growth: OD 630 nm at 24 hrs divided by OD of control (control = 1)” value ([2]; 10 μmol/ml) was 0.9297. The “biofilm growth: OD 630 nm at 24 hrs divided by OD of control (control = 1)” value ([2]; 20 μmol/ml) was 0.7855, the “biofilm growth: OD 630 nm at 24 hrs divided by OD of control (control = 1)” value ([2]; 25 μmol/ml) was 0.8404 and the “biofilm growth: OD 630 nm at 24 hrs divided by OD of control (control = 1)” value ([3]; 5 μmol/ml) was 0.9429. For the same molecule, the “biofilm growth: OD 630 nm at 24 hrs divided by OD of control (control = 1)” value ([3]; 10 μmol/ml) was 0.9387, the “biofilm growth: OD 630 nm at 24 hrs divided by OD of control (control = 1)” value ([3]; 20 μmol/ml) was 0.9130 and the “biofilm growth: OD 630 nm at 24 hrs divided by OD of control (control = 1)” value ([3]; 25 μmol/ml) was 0.9464. For the same molecule, the “biofilm growth: OD 630 nm at 24 hrs divided by OD of control (control = 1)” value ([4]; 5 μmol/ml) was 1.0874, the “biofilm growth: OD 630 nm at 24 hrs divided by OD of control (control = 1)” value ([4]; 10 μmol/ml) was 1.1335 and the “biofilm growth: OD 630 nm at 24 hrs divided by OD of control (control = 1)” value ([4]; 20 μmol/ml) was 1.1002. For the same molecule, the “biofilm growth: OD 630 nm at 24 hrs divided by OD of control (control = 1)” value ([4]; 25 μmol/ml) was 1.2536, the “biofilm growth: OD 630 nm at 24 hrs divided by OD of control (control = 1)” value ([5]; 5 μmol/ml) was 2.0059 and the “biofilm growth: OD 630 nm at 24 hrs divided by OD of control (control = 1)” value ([5]; 10 μmol/ml) was 1.8143. For the same molecule, the “biofilm growth: OD 630 nm at 24 hrs divided by OD of control (control = 1)” value ([5]; 20 μmol/ml) was 1.5017, the “biofilm growth: OD 630 nm at 24 hrs divided by OD of control (control = 1)” value ([5]; 25 μmol/ml) was 1.1725 and the “biofilm growth: OD 630 nm at 24 hrs divided by OD of control (control = 1)” value ([6]; 5 μmol/ml) was 1.5849. For the same molecule, the “biofilm growth: OD 630 nm at 24 hrs divided by OD of control (control = 1)” value ([6]; 10 μmol/ml) was 1.4372, the “biofilm growth: OD 630 nm at 24 hrs divided by OD of control (control = 1)” value ([6]; 20 μmol/ml) was 1.4348 and the “biofilm growth: OD 630 nm at 24 hrs divided by OD of control (control = 1)” value ([6]; 25 μmol/ml) was 1.4411. The “biofilm growth: OD 630 nm at 24 hrs divided by OD of control (control = 1)” value ([7]; 5 μmol/ml) was 1.9433, the “biofilm growth: OD 630 nm at 24 hrs divided by OD of control (control = 1)” value ([7]; 10 μmol/ml) was 1.5717 and the “biofilm growth: OD 630 nm at 24 hrs divided by OD of control (control = 1)” value ([7]; 20 μmol/ml) was 0.5236. For the same molecule, the “biofilm growth: OD 630 nm at 24 hrs divided by OD of control (control = 1)” value ([7]; 25 μmol/ml) was 0.3988, the “biofilm growth: OD 630 nm at 24 hrs divided by OD of control (control = 1)” value ([8]; 5 μmol/ml) was 0.1692 and the “biofilm growth: OD 630 nm at 24 hrs divided by OD of control (control = 1)” value ([8]; 10 μmol/ml) was 0.0920. For the same molecule, the “biofilm growth: OD 630 nm at 24 hrs divided by OD of control (control = 1)” value ([8]; 20 μmol/ml) was 0.0289, the “biofilm growth: OD 630 nm at 24 hrs divided by OD of control (control = 1)” value ([8]; 25 μmol/ml) was 0.0366 and the “biofilm growth: OD 630 nm at 24 hrs divided by OD of control (control = 1)” value ([9]; 5 μmol/ml) was 2.0761. For the same molecule, the “biofilm growth: OD 630 nm at 24 hrs divided by OD of control (control = 1)” value ([9]; 10 μmol/ml) was 2.7352, the “biofilm growth: OD 630 nm at 24 hrs divided by OD of control (control = 1)” value ([9]; 20 μmol/ml) was 1.6356 and the “biofilm growth: OD 630 nm at 24 hrs divided by OD of control (control = 1)” value ([9]; 25 μmol/ml) was 1.9363. The “biofilm growth: OD 630 nm at 24 hrs divided by OD of control (control = 1)” value ([10]; 5 μmol/ml) was 1.0356, the “biofilm growth: OD 630 nm at 24 hrs divided by OD of control (control = 1)” value ([10]; 10 μmol/ml) was 1.1168 and the “biofilm growth: OD 630 nm at 24 hrs divided by OD of control (control = 1)” value ([10]; 20 μmol/ml) was 1.1403. For the same molecule, the “biofilm growth: OD 630 nm at 24 hrs divided by OD of control (control = 1)” value ([10]; 25 μmol/ml) was 1.1529, the “biofilm growth: OD 630 nm at 24 hrs divided by OD of control (control = 1)” value ([11]; 5 μmol/ml) was 0.9734 and the “biofilm growth: OD 630 nm at 24 hrs divided by OD of control (control = 1)” value ([11]; 10 μmol/ml) was 0.9794. For the same molecule, the “biofilm growth: OD 630 nm at 24 hrs divided by OD of control (control = 1)” value ([11]; 20 μmol/ml) was 1.0297, the “biofilm growth: OD 630 nm at 24 hrs divided by OD of control (control = 1)” value ([11]; 25 μmol/ml) was 0.9417 and the “biofilm growth: OD 630 nm at 24 hrs divided by OD of control (control = 1)” value ([12]; 5 μmol/ml) was 1.2298. The “biofilm growth: OD 630 nm at 24 hrs divided by OD of control (control = 1)” value ([12]; 10 μmol/ml) was 1.3941, the “biofilm growth: OD 630 nm at 24 hrs divided by OD of control (control = 1)” value ([12]; 20 μmol/ml) was 1.4942 and the “biofilm growth: OD 630 nm at 24 hrs divided by OD of control (control = 1)” value ([12]; 25 μmol/ml) was 1.3055. The “biofilm growth: OD 630 nm at 24 hrs divided by OD of control (control = 1)” value ([13]; 5 μmol/ml) was 0.9121, the “biofilm growth: OD 630 nm at 24 hrs divided by OD of control (control = 1)” value ([13]; 10 μmol/ml) was 0.8700 and the “biofilm growth: OD 630 nm at 24 hrs divided by OD of control (control = 1)” value ([13]; 20 μmol/ml) was 0.9602. For the same molecule, the “biofilm growth: OD 630 nm at 24 hrs divided by OD of control (control = 1)” value ([13]; 25 μmol/ml) was 0.9613.

— US11419806B2, “Prebiotic oral care methods using a saccharide” (Colgate-Palmolive Company, priority 2013, dated 2022)
